Laboratory results from ChEMBL document CHEMBL4507260 (2021).

Key:
Settings in all cases: Compound concentration 1000.0 nM
[1] = biological target: Serine/threonine-protein kinase Sgk3 (Homo sapiens) (UniProt Q96BR1)
[2] = biological target: 5'-AMP-activated protein kinase catalytic subunit alpha-2 (Homo sapiens) (UniProt P54646)
[3] = biological target: Calcium/calmodulin-dependent protein kinase type II subunit alpha (Homo sapiens) (UniProt Q9UQM7)
[4] = biological target: Receptor tyrosine-protein kinase erbB-2 (Homo sapiens) (UniProt P04626)
[5] = biological target: Interferon-induced, double-stranded RNA-activated protein kinase (Homo sapiens) (UniProt P19525)
Interferon-induced, double-stranded RNA-activated protein kinase (Homo sapiens), sequence (P19525 whole entry): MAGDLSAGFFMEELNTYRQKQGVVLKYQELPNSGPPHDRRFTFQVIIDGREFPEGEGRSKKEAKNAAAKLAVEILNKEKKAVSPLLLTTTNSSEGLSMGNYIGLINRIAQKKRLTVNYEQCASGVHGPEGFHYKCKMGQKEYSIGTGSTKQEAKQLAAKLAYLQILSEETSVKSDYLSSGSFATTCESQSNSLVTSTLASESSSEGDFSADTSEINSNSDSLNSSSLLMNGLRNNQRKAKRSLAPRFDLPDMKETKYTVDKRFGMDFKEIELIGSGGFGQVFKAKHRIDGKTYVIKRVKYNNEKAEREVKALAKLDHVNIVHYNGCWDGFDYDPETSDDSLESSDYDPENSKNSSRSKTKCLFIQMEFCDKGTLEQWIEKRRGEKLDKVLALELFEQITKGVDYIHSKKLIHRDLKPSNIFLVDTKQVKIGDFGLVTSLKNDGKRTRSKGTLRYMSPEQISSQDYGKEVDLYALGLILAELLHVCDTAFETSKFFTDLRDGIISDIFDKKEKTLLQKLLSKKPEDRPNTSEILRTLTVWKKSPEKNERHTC

[6] = biological target: Tyrosine-protein kinase receptor TYRO3 (Homo sapiens) (UniProt Q06418)
[7] = biological target: Calcium/calmodulin-dependent protein kinase type 1G (Homo sapiens) (UniProt Q96NX5)
[8] = biological target: Serine/threonine-protein kinase PLK2 (Homo sapiens) (UniProt Q9NYY3)
[9] = biological target: Cyclin-G-associated kinase (Homo sapiens) (UniProt O14976)
[10] = biological target: Casein kinase I isoform gamma-3 (Homo sapiens) (UniProt Q9Y6M4)
[11] = biological target: Leukocyte tyrosine kinase receptor (Homo sapiens) (UniProt P29376)
[12] = biological target: Serine/threonine-protein kinase Nek1 (Homo sapiens) (UniProt Q96PY6)
Serine/threonine-protein kinase Nek1 (Homo sapiens), sequence (Q96PY6 whole entry): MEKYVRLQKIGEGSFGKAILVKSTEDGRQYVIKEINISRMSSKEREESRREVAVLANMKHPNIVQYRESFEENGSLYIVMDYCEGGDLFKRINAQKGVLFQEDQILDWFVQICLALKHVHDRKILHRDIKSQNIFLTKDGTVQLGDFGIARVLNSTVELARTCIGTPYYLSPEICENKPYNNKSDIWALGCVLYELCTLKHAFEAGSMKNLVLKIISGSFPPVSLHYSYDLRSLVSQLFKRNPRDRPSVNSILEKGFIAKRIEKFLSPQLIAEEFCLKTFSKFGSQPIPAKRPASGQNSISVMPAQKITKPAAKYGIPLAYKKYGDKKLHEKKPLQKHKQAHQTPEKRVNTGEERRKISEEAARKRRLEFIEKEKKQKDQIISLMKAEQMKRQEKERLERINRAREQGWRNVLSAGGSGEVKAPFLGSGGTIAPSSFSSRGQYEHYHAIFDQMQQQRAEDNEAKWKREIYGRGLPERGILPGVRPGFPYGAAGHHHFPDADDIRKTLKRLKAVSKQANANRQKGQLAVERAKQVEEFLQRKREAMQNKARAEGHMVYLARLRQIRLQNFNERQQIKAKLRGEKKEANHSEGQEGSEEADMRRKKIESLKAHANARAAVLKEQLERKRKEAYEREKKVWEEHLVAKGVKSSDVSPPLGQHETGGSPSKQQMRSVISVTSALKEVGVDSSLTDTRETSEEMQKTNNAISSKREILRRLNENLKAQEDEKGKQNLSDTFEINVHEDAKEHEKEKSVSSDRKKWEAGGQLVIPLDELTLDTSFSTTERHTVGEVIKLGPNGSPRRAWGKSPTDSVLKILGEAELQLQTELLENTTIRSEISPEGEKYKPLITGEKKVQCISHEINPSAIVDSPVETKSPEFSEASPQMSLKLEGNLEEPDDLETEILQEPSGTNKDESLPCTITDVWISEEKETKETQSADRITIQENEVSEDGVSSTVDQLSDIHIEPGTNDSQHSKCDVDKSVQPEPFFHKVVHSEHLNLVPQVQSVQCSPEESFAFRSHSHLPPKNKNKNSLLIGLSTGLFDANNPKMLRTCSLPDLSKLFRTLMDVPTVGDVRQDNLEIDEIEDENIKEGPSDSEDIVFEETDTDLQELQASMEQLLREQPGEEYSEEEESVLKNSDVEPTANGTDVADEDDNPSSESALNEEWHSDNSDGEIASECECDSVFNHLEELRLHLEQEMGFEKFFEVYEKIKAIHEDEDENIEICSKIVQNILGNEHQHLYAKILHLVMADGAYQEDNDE

[13] = biological target: Phosphatidylinositol 4-phosphate 5-kinase type-1 gamma (Homo sapiens) (UniProt O60331)
[14] = biological target: Tyrosine-protein kinase ABL1 (Homo sapiens) (UniProt P00519)
[15] = biological target: ALK tyrosine kinase receptor (Homo sapiens) (UniProt Q9UM73)
ALK tyrosine kinase receptor (Homo sapiens), sequence (Q9UM73 19-1620 limits assumed): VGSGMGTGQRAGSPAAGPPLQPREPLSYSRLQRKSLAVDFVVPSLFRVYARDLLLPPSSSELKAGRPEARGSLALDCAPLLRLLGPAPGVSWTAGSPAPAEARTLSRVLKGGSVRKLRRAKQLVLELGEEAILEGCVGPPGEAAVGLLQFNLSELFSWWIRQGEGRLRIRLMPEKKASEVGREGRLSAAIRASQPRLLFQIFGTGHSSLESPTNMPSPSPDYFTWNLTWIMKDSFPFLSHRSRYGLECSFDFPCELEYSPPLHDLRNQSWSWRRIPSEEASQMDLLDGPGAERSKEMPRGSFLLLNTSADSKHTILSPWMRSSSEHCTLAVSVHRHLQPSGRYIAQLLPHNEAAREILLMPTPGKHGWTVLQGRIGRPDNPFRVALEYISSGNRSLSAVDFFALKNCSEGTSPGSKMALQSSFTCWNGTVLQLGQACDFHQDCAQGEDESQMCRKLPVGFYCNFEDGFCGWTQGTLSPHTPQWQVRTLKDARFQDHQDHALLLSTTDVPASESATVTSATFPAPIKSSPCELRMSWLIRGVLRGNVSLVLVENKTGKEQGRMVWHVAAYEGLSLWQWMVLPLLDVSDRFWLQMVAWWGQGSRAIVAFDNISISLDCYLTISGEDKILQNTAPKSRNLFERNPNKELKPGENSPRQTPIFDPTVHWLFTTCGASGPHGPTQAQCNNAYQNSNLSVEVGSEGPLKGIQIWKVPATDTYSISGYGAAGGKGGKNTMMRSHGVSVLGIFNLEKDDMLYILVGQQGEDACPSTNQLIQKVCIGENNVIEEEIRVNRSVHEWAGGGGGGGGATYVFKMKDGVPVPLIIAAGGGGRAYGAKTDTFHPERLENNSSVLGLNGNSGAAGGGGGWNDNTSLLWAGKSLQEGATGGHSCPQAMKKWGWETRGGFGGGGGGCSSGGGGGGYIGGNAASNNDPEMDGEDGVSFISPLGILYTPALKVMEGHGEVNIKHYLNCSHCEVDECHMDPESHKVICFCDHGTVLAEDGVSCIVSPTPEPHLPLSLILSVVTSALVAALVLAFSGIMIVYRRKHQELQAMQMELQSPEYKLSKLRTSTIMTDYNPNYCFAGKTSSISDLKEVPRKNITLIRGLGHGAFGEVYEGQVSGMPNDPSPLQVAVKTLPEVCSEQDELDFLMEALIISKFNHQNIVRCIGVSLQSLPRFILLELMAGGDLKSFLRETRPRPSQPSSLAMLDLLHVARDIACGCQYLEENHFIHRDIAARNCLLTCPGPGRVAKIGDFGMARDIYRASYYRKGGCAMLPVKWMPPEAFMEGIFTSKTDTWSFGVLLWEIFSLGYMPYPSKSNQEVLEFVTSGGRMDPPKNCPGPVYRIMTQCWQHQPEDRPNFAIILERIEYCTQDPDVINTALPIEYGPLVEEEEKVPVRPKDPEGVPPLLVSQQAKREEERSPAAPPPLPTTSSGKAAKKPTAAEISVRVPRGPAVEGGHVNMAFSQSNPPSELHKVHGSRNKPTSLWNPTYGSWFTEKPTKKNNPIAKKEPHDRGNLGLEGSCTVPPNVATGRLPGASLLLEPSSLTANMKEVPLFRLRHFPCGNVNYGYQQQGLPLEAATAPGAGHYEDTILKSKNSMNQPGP

[16] = tested on: Mast/stem cell growth factor receptor Kit (Homo sapiens), P10721 [D816H]
[17] = biological target: Casein kinase II subunit alpha' (Homo sapiens) (UniProt P19784)
[18] = biological target: Serine/threonine-protein kinase RIO1 (Homo sapiens) (UniProt Q9BRS2)
[19] = tested on: Mast/stem cell growth factor receptor Kit (Homo sapiens), P10721 [L576P]
[20] = biological target: Cyclin-dependent kinase 7 (Homo sapiens) (UniProt P50613)
[21] = biological target: Serine/threonine-protein kinase Chk2 (Homo sapiens) (UniProt O96017)
[22] = biological target: Death-associated protein kinase 3 (Homo sapiens) (UniProt O43293)
[23] = biological target: Inhibitor of nuclear factor kappa-B kinase subunit epsilon (Homo sapiens) (UniProt Q14164)
[24] = biological target: Mitogen-activated protein kinase kinase kinase kinase 4 (Homo sapiens) (UniProt O95819)
[25] = biological target: Cyclin-dependent kinase-like 5 (Homo sapiens) (UniProt O76039)
[26] = biological target: Activin receptor type-2B (Homo sapiens) (UniProt Q13705)
[27] = biological target: Cyclin-dependent kinase 15 (Homo sapiens) (UniProt Q96Q40)
[28] = biological target: Dual specificity mitogen-activated protein kinase kinase 1 (Homo sapiens) (UniProt Q02750)
[29] = biological target: Testis-specific serine/threonine-protein kinase 3 (Homo sapiens) (UniProt Q96PN8)
[30] = biological target: Mitogen-activated protein kinase 1 (Homo sapiens) (UniProt P28482)
Mitogen-activated protein kinase 1 (Homo sapiens), sequence (P28482 whole entry): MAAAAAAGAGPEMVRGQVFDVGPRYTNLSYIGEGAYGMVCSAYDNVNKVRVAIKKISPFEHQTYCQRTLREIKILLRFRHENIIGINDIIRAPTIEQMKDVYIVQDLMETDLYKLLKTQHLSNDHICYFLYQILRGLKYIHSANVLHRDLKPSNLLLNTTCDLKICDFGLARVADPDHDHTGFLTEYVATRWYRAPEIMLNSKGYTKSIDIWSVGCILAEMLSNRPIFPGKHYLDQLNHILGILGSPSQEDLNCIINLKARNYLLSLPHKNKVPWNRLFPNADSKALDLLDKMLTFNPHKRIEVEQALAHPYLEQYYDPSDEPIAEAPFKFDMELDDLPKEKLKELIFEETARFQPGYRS

[31] = tested on: Mast/stem cell growth factor receptor Kit (Homo sapiens), P10721 [D816V]
[32] = biological target: MAP/microtubule affinity-regulating kinase 3 (Homo sapiens) (UniProt P27448)
[33] = biological target: Phosphatidylinositol 4,5-bisphosphate 3-kinase catalytic subunit delta isoform (Homo sapiens) (UniProt O00329)
[34] = tested on: Tyrosine-protein kinase ABL1 (Homo sapiens), P00519 [T315I]
[35] = biological target: Serine/threonine-protein kinase PAK 2 (Homo sapiens) (UniProt Q13177)
Serine/threonine-protein kinase PAK 2 (Homo sapiens), sequence (Q13177 whole entry): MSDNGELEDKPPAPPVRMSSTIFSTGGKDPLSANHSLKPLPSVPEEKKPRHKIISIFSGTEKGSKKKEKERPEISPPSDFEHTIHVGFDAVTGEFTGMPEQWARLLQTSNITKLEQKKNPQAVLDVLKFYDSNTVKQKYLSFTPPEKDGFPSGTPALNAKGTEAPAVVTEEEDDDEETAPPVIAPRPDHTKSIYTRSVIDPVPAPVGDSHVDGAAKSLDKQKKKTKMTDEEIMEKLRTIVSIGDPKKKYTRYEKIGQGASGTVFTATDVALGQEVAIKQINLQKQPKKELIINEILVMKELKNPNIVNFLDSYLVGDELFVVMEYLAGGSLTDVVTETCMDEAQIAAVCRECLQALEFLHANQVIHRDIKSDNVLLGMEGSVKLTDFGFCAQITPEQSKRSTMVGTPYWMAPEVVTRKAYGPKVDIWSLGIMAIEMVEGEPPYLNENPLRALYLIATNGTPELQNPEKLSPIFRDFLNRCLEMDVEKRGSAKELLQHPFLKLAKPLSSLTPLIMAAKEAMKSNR

[36] = tested on: Epidermal growth factor receptor (Homo sapiens), P00533 [L858R]
[37] = biological target: Ribosomal protein S6 kinase alpha-5 (Homo sapiens) (UniProt O75582)
[38] = tested on: Leucine-rich repeat serine/threonine-protein kinase 2 (Homo sapiens), Q5S007 [G2019S]
[39] = biological target: Dual specificity mitogen-activated protein kinase kinase 3 (Homo sapiens) (UniProt P46734)
[40] = biological target: Serine/threonine-protein kinase Nek4 (Homo sapiens) (UniProt P51957)
[41] = biological target: Cyclin-dependent kinase-like 1 (Homo sapiens) (UniProt Q00532)
[42] = biological target: Serine/threonine-protein kinase Sgk1 (Homo sapiens) (UniProt O00141)
[43] = biological target: Macrophage colony-stimulating factor 1 receptor (Homo sapiens) (UniProt P07333)
[44] = biological target: Death-associated protein kinase 1 (Homo sapiens) (UniProt P53355)
[45] = biological target: Receptor tyrosine-protein kinase erbB-4 (Homo sapiens) (UniProt Q15303)

5'-AMP-activated protein kinase catalytic subunit alpha-2 (Homo sapiens), sequence (P54646 whole entry, looked up): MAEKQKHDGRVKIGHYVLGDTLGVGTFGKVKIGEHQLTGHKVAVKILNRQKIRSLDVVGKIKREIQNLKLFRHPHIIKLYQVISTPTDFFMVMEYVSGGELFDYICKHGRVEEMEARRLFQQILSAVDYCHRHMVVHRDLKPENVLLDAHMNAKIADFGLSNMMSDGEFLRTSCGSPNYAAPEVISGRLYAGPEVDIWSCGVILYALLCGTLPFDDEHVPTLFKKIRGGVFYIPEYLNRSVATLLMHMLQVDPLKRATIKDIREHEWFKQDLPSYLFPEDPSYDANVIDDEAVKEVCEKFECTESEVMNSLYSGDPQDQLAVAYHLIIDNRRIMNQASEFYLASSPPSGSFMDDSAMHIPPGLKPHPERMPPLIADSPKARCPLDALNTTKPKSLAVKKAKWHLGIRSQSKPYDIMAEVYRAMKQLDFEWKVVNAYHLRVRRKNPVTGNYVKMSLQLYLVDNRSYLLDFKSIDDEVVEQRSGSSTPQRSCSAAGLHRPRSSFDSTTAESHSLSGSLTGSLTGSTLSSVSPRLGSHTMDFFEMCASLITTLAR

**Q.** How did the residual activity [1] turn out when `CSc1cccnc1N1CCN(Cc2nc3ccccc3[nH]2)CC1` [A-769] was run?
**A.** The residual activity was 95%.

**Q.** And the residual activity [2]?
**A.** The residual activity was 100%.

**Q.** And the residual activity [3]?
**A.** The residual activity was 100%.

**Q.** And the residual activity [4]?
**A.** Its residual activity is 88%.

**Q.** What about the residual activity [5] of the same molecule?
**A.** Its residual activity is 100%.

**Q.** And the residual activity [6]?
**A.** Its residual activity is 100%.

**Q.** And the residual activity [7]?
**A.** Its residual activity is 100%.

**Q.** And the residual activity [8]?
**A.** Its residual activity is 71%.

**Q.** And the residual activity [9]?
**A.** The residual activity was 99%.

**Q.** And the residual activity [10]?
**A.** The residual activity was 86%.

**Q.** What about the residual activity [11] of the same molecule?
**A.** Its residual activity is 89%.

**Q.** What about the residual activity [12] of the same molecule?
**A.** Its residual activity is 100%.

**Q.** What about the residual activity [13] of the same molecule?
**A.** The residual activity was 100%.

**Q.** What about the residual activity [14] of the same molecule?
**A.** The residual activity was 78%.

**Q.** What about the residual activity [15] of the same molecule?
**A.** The residual activity was 70%.

**Q.** And the residual activity [16]?
**A.** Its residual activity is 100%.

**Q.** What about the residual activity [17] of the same molecule?
**A.** The residual activity was 100%.

**Q.** And the residual activity [18]?
**A.** The residual activity was 100%.

**Q.** And the residual activity [19]?
**A.** Its residual activity is 92%.

**Q.** What about the residual activity [20] of the same molecule?
**A.** Its residual activity is 61%.

**Q.** And the residual activity [21]?
**A.** The residual activity was 96%.

**Q.** And the residual activity [22]?
**A.** The residual activity was 100%.

**Q.** What about the residual activity [23] of the same molecule?
**A.** The residual activity was 81%.

**Q.** What about the residual activity [24] of the same molecule?
**A.** Its residual activity is 95%.

**Q.** And the residual activity [25]?
**A.** Its residual activity is 76%.

**Q.** And the residual activity [26]?
**A.** The residual activity was 98%.

**Q.** And the residual activity [27]?
**A.** The residual activity was 100%.

**Q.** And the residual activity [28]?
**A.** The residual activity was 79%.

**Q.** And the residual activity [29]?
**A.** The residual activity was 98%.

**Q.** And the residual activity [30]?
**A.** The residual activity was 93%.

**Q.** And the residual activity [31]?
**A.** Its residual activity is 90%.

**Q.** And the residual activity [32]?
**A.** Its residual activity is 98%.

**Q.** And the residual activity [33]?
**A.** The residual activity was 100%.

**Q.** And the residual activity [34]?
**A.** Its residual activity is 93%.

**Q.** What about the residual activity [35] of the same molecule?
**A.** Its residual activity is 100%.

**Q.** And the residual activity [36]?
**A.** The residual activity was 100%.

**Q.** What about the residual activity [37] of the same molecule?
**A.** Its residual activity is 100%.

**Q.** And the residual activity [38]?
**A.** The residual activity was 92%.

**Q.** And the residual activity [39]?
**A.** The residual activity was 100%.

**Q.** What about the residual activity [40] of the same molecule?
**A.** Its residual activity is 88%.

**Q.** What about the residual activity [41] of the same molecule?
**A.** The residual activity was 100%.

**Q.** And the residual activity [42]?
**A.** The residual activity was 82%.

**Q.** What about the residual activity [43] of the same molecule?
**A.** Its residual activity is 73%.

**Q.** What about the residual activity [44] of the same molecule?
**A.** The residual activity was 100%.

**Q.** And the residual activity [45]?
**A.** The residual activity was 83%.

**Q.** Which residual activity [1] does the source give for `c1ccc(N2CCN(Cc3nc4ccccc4[nH]3)CC2)nc1` [ABT-724] here?
**A.** The residual activity was 100%.

**Q.** What about the residual activity [2] of the same molecule?
**A.** Its residual activity is 100%.

**Q.** What about the residual activity [3] of the same molecule?
**A.** Its residual activity is 100%.

**Q.** What about the residual activity [4] of the same molecule?
**A.** Its residual activity is 78%.

**Q.** What about the residual activity [5] of the same molecule?
**A.** Its residual activity is 100%.

**Q.** And the residual activity [6]?
**A.** The residual activity was 93%.

**Q.** What about the residual activity [7] of the same molecule?
**A.** Its residual activity is 100%.

**Q.** What about the residual activity [8] of the same molecule?
**A.** The residual activity was 100%.

**Q.** What about the residual activity [9] of the same molecule?
**A.** The residual activity was 100%.

**Q.** And the residual activity [10]?
**A.** The residual activity was 100%.

**Q.** What about the residual activity [11] of the same molecule?
**A.** The residual activity was 100%.

**Q.** And the residual activity [12]?
**A.** The residual activity was 100%.

**Q.** And the residual activity [13]?
**A.** Its residual activity is 93%.

**Q.** And the residual activity [14]?
**A.** The residual activity was 100%.

**Q.** And the residual activity [15]?
**A.** The residual activity was 91%.

**Q.** And the residual activity [16]?
**A.** Its residual activity is 100%.

**Q.** What about the residual activity [17] of the same molecule?
**A.** The residual activity was 100%.

**Q.** What about the residual activity [18] of the same molecule?
**A.** Its residual activity is 86%.

**Q.** What about the residual activity [19] of the same molecule?
**A.** Its residual activity is 100%.

**Q.** What about the residual activity [20] of the same molecule?
**A.** The residual activity was 48%.

**Q.** What about the residual activity [21] of the same molecule?
**A.** Its residual activity is 100%.

**Q.** What about the residual activity [22] of the same molecule?
**A.** Its residual activity is 91%.

**Q.** And the residual activity [23]?
**A.** The residual activity was 100%.

**Q.** And the residual activity [24]?
**A.** The residual activity was 100%.

**Q.** What about the residual activity [25] of the same molecule?
**A.** Its residual activity is 100%.

**Q.** And the residual activity [26]?
**A.** The residual activity was 100%.

**Q.** What about the residual activity [27] of the same molecule?
**A.** The residual activity was 95%.

**Q.** And the residual activity [28]?
**A.** The residual activity was 100%.

**Q.** What about the residual activity [29] of the same molecule?
**A.** Its residual activity is 92%.

**Q.** And the residual activity [30]?
**A.** The residual activity was 100%.

**Q.** What about the residual activity [31] of the same molecule?
**A.** The residual activity was 100%.

**Q.** What about the residual activity [32] of the same molecule?
**A.** The residual activity was 100%.

**Q.** What about the residual activity [33] of the same molecule?
**A.** The residual activity was 69%.

**Q.** And the residual activity [34]?
**A.** Its residual activity is 100%.

**Q.** And the residual activity [35]?
**A.** The residual activity was 100%.

**Q.** What about the residual activity [36] of the same molecule?
**A.** Its residual activity is 100%.

**Q.** And the residual activity [37]?
**A.** Its residual activity is 85%.

**Q.** What about the residual activity [38] of the same molecule?
**A.** Its residual activity is 100%.

**Q.** And the residual activity [39]?
**A.** Its residual activity is 96%.

**Q.** What about the residual activity [40] of the same molecule?
**A.** The residual activity was 100%.

**Q.** What about the residual activity [41] of the same molecule?
**A.** The residual activity was 78%.

**Q.** And the residual activity [42]?
**A.** Its residual activity is 100%.

**Q.** What about the residual activity [43] of the same molecule?
**A.** The residual activity was 100%.

**Q.** What about the residual activity [44] of the same molecule?
**A.** Its residual activity is 100%.

**Q.** What about the residual activity [45] of the same molecule?
**A.** The residual activity was 95%.
